According to ChEMBL document CHEMBL1148074, “Thalifaberidine, a cytotoxic aporphine-benzylisoquinoline alkaloid from Thalictrum faberi” (J Nat Prod, 1994):
Converted amounts (≈) assume the structure as drawn. The source made the active and inactive calls. The rule behind the calls is not given here.

How the values were obtained:
Plasmodium falciparum [1] = experiment: Antimalarial activity against chloroquine-resistant Plasmodium falciparum W2 infected human erythrocytes after 24 hrs by [3H]hypoxanthine uptake; format: functional; conditions: read-out: ED50 (the source's name)
[2] = Selectivity index, ratio of ED50 for human KB cells to ED50 for chloroquine-sensitive Plasmodium falciparum D6; format: toxicity, cell-based; conditions: read-out: Selectivity Index
Plasmodium falciparum [3] = experiment: Antimalarial activity against chloroquine-sensitive Plasmodium falciparum D6 infected human erythrocytes after 24 hrs by [3H]hypoxanthine uptake; format: functional; conditions: read-out: ED50 (the source's name)
[4] = Selectivity index, ratio of ED50 for human KB cells to ED50 for chloroquine-resistant Plasmodium falciparum W2; format: toxicity, cell-based; conditions: read-out: Selectivity Index
HT-1080 = experiment: Cytotoxicity against human HT1080 cells after 3 days by SRB assay; format: functional; conditions: HT-1080, 72 h, read-out: ED50 (the source's name)
KB = experiment: Cytotoxicity against human KB cells after 3 days by SRB assay; format: functional; conditions: 72 h, read-out: ED50 (the source's name)
P388 = experiment: Cytotoxicity against mouse P388 cells after 3 days by SRB assay; format: functional; conditions: P388, 72 h, read-out: ED50 (the source's name)
[5] = molecular target: Human immunodeficiency virus type 1 reverse transcriptase (Human immunodeficiency virus 1) (UniProt Q72547); experiment: Inhibition of HIV1 reverse transcriptase
[6] = Cytotoxicity against human BCA1 cells after 3 days by SRB assay; format: functional; conditions: BCA1, 72 h, read-out: ED50 (the source's name)
[7] = Cytotoxicity against human KBVIN cells after 3 days by SRB assay; format: functional; conditions: 72 h, read-out: ED50 (the source's name)
[8] = Cytotoxicity against human U373 cells after 3 days by SRB assay; format: functional, U-373MG ATCC; conditions: U373 MG, 72 h, read-out: ED50 (the source's name)
Col2 = experiment: Cytotoxicity against human Col2 cells after 3 days by SRB assay; format: functional; conditions: Col2, 72 h, read-out: ED50 (the source's name)
LNCaP = experiment: Cytotoxicity against human LNCAP cells after 3 days by SRB assay; format: functional; conditions: 72 h, read-out: ED50 (the source's name)
ZR-75-1 = experiment: Cytotoxicity against human ZR-75-1 cells after 3 days by SRB assay; format: functional; conditions: ZR-75-1, 72 h, read-out: ED50 (the source's name)
Lu1 = experiment: Cytotoxicity against human Lu1 cells after 3 days by SRB assay; format: functional; conditions: Lu1, 72 h, read-out: ED50 (the source's name)
A-431 = experiment: Cytotoxicity against human A431 cells after 3 days by SRB assay; format: functional; conditions: A-431, 72 h, read-out: ED50 (the source's name)
[9] = Cytotoxicity against human KBVIN cells in presence of 1 ug/ml vinblastine after 3 days by SRB assay; format: functional; conditions: 72 h, read-out: ED50 (the source's name)

Compound	EC50 (Plasmodium falciparum [1]) [µg/mL]	selectivity ratio [2]	EC50 (Plasmodium falciparum [3]) [µg/mL]	selectivity ratio [4]	EC50 (HT-1080) [µg/mL]	EC50 (KB) [µg/mL]	EC50 (P388) [µg/mL]	Activity [5]	EC50 [6] [µg/mL]	EC50 [7] [µg/mL]	EC50 [8] [µg/mL]	EC50 (Col2) [µg/mL]	EC50 (LNCaP) [µg/mL]	EC50 (ZR-75-1) [µg/mL]	EC50 (Lu1) [µg/mL]	EC50 (A-431) [µg/mL]	EC50 [9] [µg/mL]
OC(c1cc(C(F)(F)F)nc2c(C(F)(F)F)cccc12)C1CCCCN1 (centres undefined) [MEFLOQUINE]	0.0019 (≈ 0.00502 µM)	393	0.0089 (≈ 0.0235 µM)	1840	–	–	–	–	–	–	–	–	–	–	–	–	–
COc1cc2c(cc1OC)[C@H](Cc1ccc(Oc3c4c(cc(OC)c3OC)-c3c(OC)c(OC)c(OC)c5c3[C@H](C4)N(C)CC5)cc1)N(C)CC2 [THALIFABERINE]	0.441 (≈ 0.633 µM)	3	5.09 (≈ 7.3 µM)	35	2.6 (≈ 3.73 µM)	15.5 (≈ 22.2 µM)	1.3 (≈ 1.87 µM)	inactive	5.4 (≈ 7.75 µM)	1.2 (≈ 1.72 µM)	4.1 (≈ 5.88 µM)	1.6 (≈ 2.3 µM)	5.7 (≈ 8.18 µM)	3.7 (≈ 5.31 µM)	16.3 (≈ 23.4 µM)	4.9 (≈ 7.03 µM)	4.6
C[C@@H]1CC[C@H]2[C@@H](C)C(=O)O[C@@H]3O[C@@]4(C)CC[C@@H]1[C@]32OO4 [ARTEMISININ]	0.0004 (≈ 0.00142 µM)	> 1820	0.0011 (≈ 0.0039 µM)	> 50000	–	–	–	–	–	–	–	–	–	–	–	–	–
COc1cc2c(c(O)c1OC)CCN(C)[C@H]2Cc1ccc(Oc2c3c(cc(OC)c2OC)-c2c(OC)c(OC)c(O)c4c2[C@H](C3)N(C)CC4)cc1 [THALIFASINE]	0.0493 (≈ 0.0705 µM)	19	0.238 (≈ 0.341 µM)	93	1.3 (≈ 1.86 µM)	4.6 (≈ 6.58 µM)	1.2 (≈ 1.72 µM)	inactive	2.4 (≈ 3.43 µM)	1.6 (≈ 2.29 µM)	2.2 (≈ 3.15 µM)	2.1 (≈ 3.01 µM)	3.3 (≈ 4.72 µM)	1.2 (≈ 1.72 µM)	2 (≈ 2.86 µM)	8.2 (≈ 11.7 µM)	5.7
CCN(CC)CCCC(C)Nc1ccnc2cc(Cl)ccc12 (centres undefined) [CHLOROQUINE]	–	–	0.0035 (≈ 0.0109 µM)	–	–	–	–	–	–	–	–	–	–	–	–	–	–
C=C[C@H]1CN2CC[C@H]1C[C@H]2[C@H](O)c1ccnc2ccc(OC)cc12 [QUININE]	0.0592 (≈ 0.182 µM)	> 960	0.0208 (≈ 0.0641 µM)	> 340	–	–	–	–	–	–	–	–	–	–	–	–	–
COc1cc2c(cc1O)CCN(C)[C@H]2Cc1ccc(Oc2c(O)c(OC)cc3c2C[C@H]2c4c(c(OC)c(OC)c(OC)c4-3)CCN2C)cc1 [THALIFABERIDINE]	0.122 (≈ 0.182 µM)	6.5	0.88 (≈ 1.32 µM)	47	3.1 (≈ 4.64 µM)	5.7 (≈ 8.52 µM)	0.6 (≈ 0.897 µM)	inactive	3.9 (≈ 5.83 µM)	7.8 (≈ 11.7 µM)	1.5 (≈ 2.24 µM)	3.2 (≈ 4.78 µM)	3.7 (≈ 5.53 µM)	1.5 (≈ 2.24 µM)	5.4 (≈ 8.07 µM)	6.7 (≈ 10 µM)	17.7
